For series [1], the system named is drilled broad leaved & grass weeds. The experiment in a line: Field trials of 200 g/l paraquat compositions applied as foliar spray. It is filed as in vivo. As to conditions: 39% and 51% of the conventional adjuvant system substituted. As for the experimental part:
Field Trials were conducted at 8 locations where the target plants were a range of drilled broad leaved & grass weeds. The 200 g/l paraquat compositions were applied as a foliar spray at application rates of 75, 150 & 300 g/ha paraquat ion, and at an application volume of 200 l/ha at a weed growth stage when the grasses were tillering & the broadleaved weeds were branching.

The format of series [2] is physicochemical. The text has this:
It is to be understood that the term physical incompatibility in relation to adjuvants used in bipyridyl compositions indicates either gross separation of one or more components of the composition which may or may not be accompanied by a significant change in formulation rheology or bulk homogeneity. It is not necessarily essential that the composition is fully homogeneous in a strict physical sense provided that the composition is substantially homogeneous in the bulk. Thus a slight separation of a second phase may be acceptable provided that the separated phase remains fully dispersed in the bulk. […] This is obviously undesirable for a number of reasons. The term physical compatibility indicates the reverse of physical incompatibility as defined above.

A short description of series [3]: Physical compatibility of formulations by microscopic examination. It is filed as physicochemical. The following applies: corresponding formulations with about 120 g/l magnesium sulphate heptahydrate.
Series [4] concerns eight representative weed species. In words: Bioperformance enhancement of paraquat by amine/amide adjuvants, moving track sprayer. It is filed as in vivo. As to conditions: paraquat dichloride spray at 10, 20 and 40 g/ha paraquat ion, 200 l/ha; adjuvant 0.5% by weight of spray volume (aminoethylpiperazine 0.625%); 7 days after treatment; mean over all species and combined rates; 0% no herbicidal effect, 100% complete kill. As for the experimental part: The bioperformance enhancement of paraquat in the presence of amines or amides of the present invention was evaluated. An aqueous formulation of paraquat dichloride containing 0.5% by weight of the quinuclidine (based on the weight of the amine salt), N-(aminopropyl) morphiline (based on the weight of the parent amine) or 1-(2-hydroxethyl-2-imidazolidinone) (based on the weight of the amide), all based on total spray volume was applied using a moving track sprayer to eight representative weed species at 10, 20 and 40 g/ha (based on paraquat ion). The spray volume was equivalent to 200 l/ha. For aminoethylpiperazine the formulation contained 0.625% by weight of the amine (based on the parent amine).
The results are compared with an equivalent formulation containing only paraquat chloride.

Where a name gives a salt, the structure may show the parent alone.

Regarding aminoethylpiperazine [AEP], the “Effect on biological performance of substituting conventional adjuvant system by AEP” value in series [1] was “no deleterious effect”. The “Adjuvant loading compatible with compositions of WO 02/076212” value in series [2] (actual amine) was at least 40 g/L. Besides, the “Physical compatibility when conventional surfactants were replaced by AEP” value in series [3] is on record as “significant improvement”.

For the molecule `CCCCCCCCOC(=O)CC(C(=O)OCCCCCCCC)S(=O)(=O)O.[Na]` (centres unmarked) [sodium dioctyl sulfosuccinate, reference compound], the “Adjuvant level at which physical separation / two phases were observed” value in series [2] (about 120 g/l paraquat ion, about 80 g/l diquat ion, alginate, about 120 g/l magnesium sulphate heptahydrate) is “below 10 g/l”.

Take `O=C1NCCN1CCO` [1-(2-hydroxethyl-2-imidazolidinone)]: the “Mean Activity (%)” value in series [4] worked out at 66%.

For the molecule `C1CN2CCC1CC2` [Quinuclidine as hydrochloride salt, Quinuclidine], in series [4], the “Mean Activity (%)” value worked out at 68%.

For the molecule `NCCCN1CCOCC1` [N-(Aminopropyl) morphiline], the “Mean Activity (%)” value in series [4] was found to be 65%.

On to `NCCN1CCNCC1` [Aminoethylpiperazine], for which the “Mean Activity (%)” value in series [4] was 72%.

These data come from patent US20070082818A1, “Agrochemical compositions” (priority 2003, published 2007).
